Results: US8030354B2, “Substituted biphenyl GPR40 modulators” (Amgen Inc., priority 2007, dated 2011)

Assays:
GPR40 [1] = molecular target: T1, GPR40 (Homo sapiens, UniProt O14842); test: Cell-based aequorin assay (CHO cells stably expressing GPR40 and aequorin); parameters: expressed in transfected cells; host or cells: CHO cells stably transfected with GPR40 and aequorin; conditions: activation of human GPR40, CHO cells, 0.01% HSA
How it was run: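 CHO cells stably co-expressing GPR40 and aequorin, loaded with coelenterazine (1 ug/mL, 2 h, room temperature) in H/HBSS with 20 mM Hepes and 0.01% fatty acid-free HSA. Serially diluted compounds added; luminescence recorded over 20 s. EC50 from dose-response of maximum relative light units.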

GPR40 [2] = molecular target: T1, GPR40; test: Inositol phosphate accumulation assay (A9_GPR40 cells); assay type: cell-based; parameters: expressed in transfected cells; host or cells: CHO cells stably transfected with GPR40 and aequorin; conditions: inositol phosphate assay, A9_GPR40 cells, 1 hour; read-out: IP3 EC50
How it was run: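 A9 cells stably expressing GPR40 were labelled 16 h with 1 μCi/mL ^3H-inositol in inositol-free DMEM with dialysed FBS. Compounds in HBSS/10 mM LiCl with HSA were applied for 1 h at 37° C, then quenched with 20 mM formic acid. Accumulated [^3H] inositol phosphates were counted by SPA.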

T1 sequence (O14842 whole entry): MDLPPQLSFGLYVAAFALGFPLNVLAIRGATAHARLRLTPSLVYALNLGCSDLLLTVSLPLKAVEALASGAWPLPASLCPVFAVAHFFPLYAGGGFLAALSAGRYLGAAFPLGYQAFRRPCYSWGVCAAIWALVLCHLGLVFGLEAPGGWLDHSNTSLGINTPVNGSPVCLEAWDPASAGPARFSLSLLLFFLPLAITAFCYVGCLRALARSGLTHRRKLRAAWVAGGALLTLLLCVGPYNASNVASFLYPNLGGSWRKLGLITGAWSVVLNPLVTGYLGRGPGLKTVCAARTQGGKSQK

Structure (SMILES)	EC50 (GPR40 [1]) [µM]	EC50 (GPR40 [2]) [µM]
COCCO[C@H](c1cc(COc2cccc([C@@H](CC(=O)O)CC3CC3)c2)ccc1-c1cc(OC)ccc1F)C(C)(C)C (single isomer, unassigned) [Example 69.23]	0.01 to 0.1	< 0.01
COc1ccc(F)c(-c2ccc(COc3cccc(C(CC(=O)O)CC4CC4)c3)cc2N2CCCCC2)c1 (single isomer, unassigned) [Example 69.28, (3R)-4-Cyclopropyl-3-(3-(((2′-fluoro-5′-(methyloxy)-2-(1-piperidinyl)-1,1′-biphenyl-4-yl)methyl)oxy)phenyl)butanoic acid or (3S)-4-cyclopropyl-3-(3-(((2′-fluoro-5′-(methyloxy)-2-(1-piperidinyl)-1,1′-biphenyl-4-yl)methyl)oxy)phenyl)butanoic acid]	0.1 to 1	0.01 to 0.1
COc1ccc(F)c(-c2ccc(COc3cccc(C(CC(=O)O)CC4CC4)c3)cc2N2CCCCCC2)c1 (single isomer, unassigned) [Example 69.29, (3R)-3-(3-(((2-(1-Azepanyl)-2′-fluoro-5′-(methyloxy)-1,1′-biphenyl-4-yl)methyl)oxy)phenyl)-4-cyclopropylbutanoic acid or (3S)-3-(3-(((2-(1-azepanyl)-2′-fluoro-5′-(methyloxy)-1,1′-biphenyl-4-yl)methyl)oxy)phenyl)-4-cyclopropylbutanoic acid]	0.1 to 1	0.1 to 1
COc1ccc(F)c(-c2cc(F)c(COc3cccc(C(CC(=O)O)CC4CC4)c3)cc2C2=CCCC2(C)C)c1 (single isomer, unassigned) [Example 69.30, (3R)-4-cyclopropyl-3-(3-(((2-(5,5-dimethyl-1-cyclopenten-1-yl)-2′,5-difluoro-5′-(methyloxy)-1,1′-biphenyl-4-yl)methyl)oxy)phenyl)butanoic acid or (3S)-4-cyclopropyl-3-(3-(((2-(5,5-dimethyl-1-cyclopenten-1-yl)-2′,5-difluoro-5′-(methyloxy)-1,1′-biphenyl-4-yl)methyl)oxy)phenyl)butanoic acid]	0.1 to 1	< 0.01
COc1ccc(F)c(-c2ccc(COc3cccc([C@@H](CC(=O)O)CC4CC4)c3)cc2C2=CC(C)(C)CC(C)(C)C2)c1 (single isomer, unassigned) [Example 69.31, (3R)-4-Cyclopropyl-3-(3-(((2′-fluoro-5′-(methyloxy)-2-(3,3,5,5-tetramethyl-1-cyclohexen-1-yl)-1,1′-biphenyl-4-yl)methyl)oxy)phenyl)butanoic acid or (3S)-4-cyclopropyl-3-(3-(((2′-fluoro-5′-(methyloxy)-2-(3,3,5,5-tetramethyl-1-cyclohexen-1-yl)-1,1′-biphenyl-4-yl)methyl)oxy)phenyl)butanoic acid]	0.1 to 1	0.01 to 0.1
COc1ccc(F)c(-c2ccc(COc3cccc([C@@H](CC(=O)O)CC4CC4)c3)cc2C2CC(C)(C)CC(C)(C)C2)c1 (single isomer, unassigned) [Example 69.32, (3R)-4-Cyclopropyl-3-(3-(((2′-fluoro-5′-(methyloxy)-2-(3,3,5,5-tetramethylcyclohexyl)-1,1′-biphenyl-4-yl)methyl)oxy)phenyl)butanoic acid or (3S)-4-cyclopropyl-3-(3-(((2′-fluoro-5′-(methyloxy)-2-(3,3,5,5-tetramethylcyclohexyl)-1,1′-biphenyl-4-yl)methyl)oxy)phenyl)butanoic acid]	0.1 to 1	0.01 to 0.1
COc1ccc(F)c(-c2cc(F)c(COc3cccc(C(CC(=O)O)CC4CC4)c3)cc2C2CCCC2(C)C)c1 (single isomer, unassigned) [Example 69.34]	0.1 to 1	< 0.01
COc1ccc(F)c(-c2ccc(COc3cccc(C(CC(=O)O)CC4CC4)c3)cc2C2CCCCC2(C)C)c1 (single isomer, unassigned) [Example 69.36]	0.1 to 1	< 0.01

Now from value to compound:

EC50 (GPR40 [1]) [µM]	EC50 (GPR40 [2]) [µM]	Structure (SMILES)
0.1 to 1	< 0.01	COc1ccc(F)c(-c2ccc(COc3cccc([C@@H](CC(=O)O)CC4CC4)c3)cc2C(OC)C(C)(C)C)c1 (single isomer, unassigned) [Example 69.18, (3R)-4-Cyclopropyl-3-(3-(((2-(2,2-dimethyl-1-(methyloxy)propyl)-2′-fluoro-5′-(methyloxy)-1,1′-biphenyl-4-yl)methyl)oxy)phenyl)butanoic acid or (3S)-4-cyclopropyl-3-(3-(((2-(2,2-dimethyl-1-(methyloxy)propyl)-2′-fluoro-5′-(methyloxy)-1,1′-biphenyl-4-yl)methyl)oxy)phenyl)butanoic acid]
0.1 to 1	0.1 to 1	COc1ccc(F)c(-c2ccc(COc3cccc([C@@H](CC(=O)O)CC4CC4)c3)cc2C(O)(C(C)C)C(C)C)c1 (single isomer, unassigned) [Example 69.19, (3R)-4-Cyclopropyl-3-(3-(((2′-fluoro-2-(1-hydroxy-2-methyl-1-(1-methylethyl)propyl)-5′-(methyloxy)-1,1′-biphenyl-4-yl)methyl)oxy)phenyl)butanoic acid or (3S)-4-cyclopropyl-3-(3-(((2′-fluoro-2-(1-hydroxy-2-methyl-1-(1-methylethyl)propyl)-5′-(methyloxy)-1,1′-biphenyl-4-yl)methyl)oxy)phenyl)butanoic acid]
0.1 to 1	0.01 to 0.1	COc1ccc(F)c(-c2ccc(COc3cccc(C(CC(=O)O)CC4CC4)c3)cc2CC(C)C)c1 (single isomer, unassigned) [Example 69.21, (3R)-4-Cyclopropyl-3-(3-(((2′-fluoro-5′-(methyloxy)-2-(2-methylpropyl)-1,1′-biphenyl-4-yl)methyl)oxy)phenyl)butanoic acid or (3S)-4-cyclopropyl-3-(3-(((2′-fluoro-5′-(methyloxy)-2-(2-methylpropyl)-1,1′-biphenyl-4-yl)methyl)oxy)phenyl)butanoic acid]
0.1 to 1	< 0.01	COc1ccc(F)c(-c2ccc(COc3cccc(C(CC(=O)O)CC4CC4)c3)cc2C(C)C(C)(C)C)c1 (single isomer, unassigned) [Example 69.22]
0.1 to 1	0.01 to 0.1	COc1ccc(F)c(-c2ccc(COc3cccc([C@@H](CC(=O)O)CC4CC4)c3)cc2SC(C)C)c1 (single isomer, unassigned) [Example 69.24, (R)-4-Cyclopropyl-3-[3-(2′-fluoro-2-isopropylsulfanyl-5′-methoxy-biphenyl-4-ylmethoxy)-phenyl]-butyric acid or (S)-4-cyclopropyl-3-[3-(2′-fluoro-2-isopropylsulfanyl-5′-methoxy-biphenyl-4-ylmethoxy)-phenyl]-butyric acid]
0.1 to 1	0.01 to 0.1	COc1ccc(F)c(-c2ccc(COc3cccc([C@@H](CC(=O)O)CC4CC4)c3)cc2C2CCCC2C)c1 (single isomer, unassigned) [Example 69.33, (3R)-4-Cyclopropyl-3-(3-(((2′-fluoro-2-(2-methylcyclopentyl)-5′-(methyloxy)-1,1′-biphenyl-4-yl)methyl)oxy)phenyl)butanoic acid or (3S)-4-cyclopropyl-3-(3-(((2′-fluoro-2-(2-methylcyclopentyl)-5′-(methyloxy)-1,1′-biphenyl-4-yl)methyl)oxy)phenyl)butanoic acid]
0.01 to 0.1	< 0.01	COc1ccc(F)c(-c2ccc(COc3cccc(C(CC(=O)O)CC4CC4)c3)cc2C(OC)C(C)(C)C)c1 (single isomer, unassigned) [Example 69.35]
